# Measured values from US8829028B2, “5-HT4 receptor antagonists for the treatment of heart failure” (Serodus AS, priority 2002, dated 2014).
# Values joined by “and” are separate entries in the source; they are usually repeats but may differ in a detail not shown here. Identical values can stand only once. Counter-ions that a name gives are not always drawn.
# What was measured:
# 5-HT4 receptor [1] = biological target: T1, 5-HT4 receptor (Rattus norvegicus, UniProt Q62758); assay: Antagonism of the serotonin inotropic response by 5-HT4 antagonists in post-MI rat papillary muscle (reversal, curve shift, Schild Kb); assay type: cell-based; details: for block of the inotropic response to serotonin: each antagonist added as printed
# T1 construct: The papillary muscles were mounted in organ baths; from tissue; host or cells: rat posterior left ventricular papillary muscle (post-MI or aortic-banding heart failure)
# T1 sequence (Q62758 whole entry): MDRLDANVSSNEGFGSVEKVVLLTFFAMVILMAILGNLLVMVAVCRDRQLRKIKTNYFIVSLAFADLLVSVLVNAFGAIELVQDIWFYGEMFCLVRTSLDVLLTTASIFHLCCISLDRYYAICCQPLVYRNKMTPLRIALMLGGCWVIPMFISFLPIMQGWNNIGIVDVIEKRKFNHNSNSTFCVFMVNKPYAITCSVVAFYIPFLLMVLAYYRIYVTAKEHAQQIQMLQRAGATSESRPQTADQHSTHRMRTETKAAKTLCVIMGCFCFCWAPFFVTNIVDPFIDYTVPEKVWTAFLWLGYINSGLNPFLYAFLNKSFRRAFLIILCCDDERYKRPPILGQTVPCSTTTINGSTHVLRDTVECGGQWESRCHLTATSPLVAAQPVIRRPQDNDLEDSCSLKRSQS
# Experimental: (§1) The muscles were field stimulated with alternating polarity at 1 Hz with impulses of 5 msec duration and current about 20% above individual threshold (10-15 mA, determined in each experiment). The isometrically contracting muscles were stretched to the maximum of their length-tension curve. The force was recorded and analysed as previously described (Skomedal et al., 1997, J. Pharmacol. Exp. Ther. 280: 721-729). The muscles were allowed to equilibrate for 90 minutes. […] Averaged contraction-relaxation cycles (CRC) were calculated for different experimental periods, and these cycles were used to determine descriptive parameters like maximal development of force (dF/dt)max, time to peak force (TPF) and time to relaxation to 20% level (TR2O). Relaxation time (RT) was calculated as TR2O-TPF. (dF/dt)max was used as an index of contractility. Inotropic responses induced by agonists were expressed by increase in (dF/dt)max. RT was used as index of relaxation. Lusitropic responses were expressed as reduction in RT. Mechanical response at the end of the equilibrium period was used as the control response.
# (§2) Agonist was added cumulatively or as a single bolus directly to the organ baths and was completely mixed in the solution within 2-3 seconds. […] The different agonists were added directly to the organ baths in increasing concentrations until supramaximal concentrations of agonist were obtained with respect to maximal inotropic response.
# The responses for each concentration of agonist were generally calculated as percent of maximal response. The concentration-response curves constructed from papillary muscle experiment were constructed according to Ariens and Simonis (1964, supra), by estimating centiles (EC10 to EC100) for each single experiment and calculating the corresponding means. This calculation provides mean curves that express the response as fractional response or percent of maximum and display horizontal positioning and the correct mean slope of the curves. The horizontal positioning of the concentration-response curves was expressed as pEC50-values (=−log EC50). Data are expressed as mean±standard error of the mean (SEM) and the number of animals expressed as n. The significance levels of differences were calculated according to Students t-test. P<0.05 is considered statistically significant. The inhibition constants Kb were calculated from the Schild equation, based on the relative shifts of the concentration-response curves for receptor stimulation.
# [2] = system: papillary muscles from Chronic heart failure rats; assay: Inotropic and lusitropic response of isolated papillary muscles from post-MI Chronic heart failure rats (organ bath, 1 Hz); assay type: cell-based, rat; details: for RT (TR20−TPF), relaxation time / TPF (time to peak force) / TR20 (time to relaxation to 20% level): CHF, serotonin 10 μmol/l, then isoprenaline 100 μmol/l
# Experimental: (§3) Male, Wistar rats (Mollegaard Breeding and Research Centre, Skensved, Denmark), weighing about 320 g were intubated and ventilated with 68% N2O, 29% O2 and 2-3% Isofluran (Abbot Laboratories, USA). An extensive myocardial infarction (MI) was induced by a proximal ligation of the left coronary artery. Six weeks later the rats were anaesthetized and ventilated on the respirator with 2.2% Isofluran. Left ventricular pressures were measured (Sjaastad et al., 2000, J. Appl. Physiol, 89: 1445-1454), and Chronic heart failure rats were included in the study if left ventricular end diastolic pressure (LVEDP) was >15 mm Hg. […] The sham-operated animals (SHAM) were subjected to the same surgical procedure but the coronary artery was not ligated.
# (§4) Hearts were isolated from the anaesthetized animals (see above) and carefully dissected free of connective tissue and transferred to ice cold 0.9% NaCl and weighed. The aorta was cannulated, and the coronaries were perfused at 31° C. with a relaxing solution containing: (mmol/l) NaCl 118.3; KCl 3.0; CaCl2 0.5; MgSO4 4.0; KH2PO4 2.4; NaHCO3 24.9; glucose 10.0; mannitol 2.2 and equilibrated with 95% O2/5% CO2 at 31° C. (pH 7.4). Posterior left ventricular papillary muscle was ligated
# (§5) The muscles were transported to a separate laboratory and mounted in organ baths. […] The papillary muscles were mounted in organ baths containing the relaxing solution and allowed to adapt at 31° C. for about 20 minutes before the solution was changed to one containing the following (in mmol/l): NaCl 119.2; KCJ 3.0; CaCl2 2.0; MgSO4 1.2; KH2PO4 2.4; NaHCO3 24.9; glucose 10.0; mannitol 2.22 and equilibrated with 95% O2/5% CO2 at 31° C. (pH 7.4).
# as §1, §2
# (§6) The responses for each concentration of agonist were generally calculated as percent of maximal response. The concentration-response curves constructed from papillary muscle experiment were constructed according to Ariens and Simonis (1964, supra), by estimating centiles (EC10 to EC100) for each single experiment and calculating the corresponding means. This calculation provides mean curves that express the response as fractional response or percent of maximum and display horizontal positioning and the correct mean slope of the curves. The horizontal positioning of the concentration-response curves was expressed as pEC50-values (=−log EC50).
# [3] = system: 5-HT2A receptor (Rattus norvegicus); details: ketanserin 0.1 μmol/l
# Sequence of 5-HT2A receptor (Rattus norvegicus) (Q62758 whole entry): as above
# Experimental: as §1, with “RT was used as index of relaxation.” left out, “Mechanical response at the end of the equilibrium period was used as the control response.” left out
# The responses for each concentration of agonist were generally calculated as percent of maximal response. […] The horizontal positioning of the concentration-response curves was expressed as pEC50-values (=−log EC50). Data are expressed as mean±standard error of the mean (SEM) and the number of animals expressed as n. The significance levels of differences were calculated according to Students t-test. […]
# [4] = system: papillary muscles from sham-operated rats; assay: Inotropic and lusitropic response of isolated papillary muscles from sham-operated rats; assay type: cell-based, rat; details: for RT (TR20−TPF), relaxation time / TPF (time to peak force) / TR20 (time to relaxation to 20% level): Sham, N=6, serotonin 10 μmol/l, then isoprenaline 100 μmol/l
# Experimental: as §3, §4, §5, §1, §2, §6
# [5] = system: papillary muscles from MInf rats; assay: Inotropic response to serotonin in papillary muscles from MInf rats (infarction without CHF); assay type: cell-based, rat; details: serotonin 10 μM
# Source text: The magnitude of the response correlated positively with infarction size up to 30-40% of the inner myocardial surface in MInf animals (FIG. 8A). In MInf hearts with infarct size 30-40% the inotropic effect was of the same magnitude as in CHF hearts which all had infarct size >40%. A positive correlation with infarction size was also observed for 5-HT4(b) and ANP mRNA expression, whereas 5-HT2A mRNA levels were unchanged (FIG. 8B).
# 5-HT4 receptor [6] = biological target: T1, 5-HT4 receptor; assay: 5-HT4 receptor-mediated inotropic response in papillary muscle of CHF rat 6 weeks after aortic banding; assay type: cell-based; details: serotonin 10 μM; prazosin, timolol, atropine 1 μM each
# Experimental: Trans-aortic constriction (aortic banding) of the ascending aorta was induced in 200 g male Wistar rats under anaesthesia, induced by 63% N2O, 32% O2 and 5% Isoflurane and maintained by 66% N2O, 33% O2 and 1-2% Isoflurane. A right-sided thoracotomi was performed through a 3-4 cm long cutaneous incision, the pericardium was opened and the ascending aorta identified and dissected free of surrounding tissue. A ligature was knit around the ascending aorta and a metal probe with diameter 0.9 mm. The metal probe was then removed. The result was a constriction of the ascending aorta with internal diameter about 0.9 mm. The thorax was then closed with 3-0 silk sutures and the skin closed with Dexon 1 sutures. […]
# Papillary muscle was extracted from a CHF rat 6 weeks after aortic banding as described above. osterior left ventricular papillary muscle was prepared, mounted in organ bath, equilibrated and field stimulated at 1 Hz (Sjaastad et al. 2003 supra), and the contraction-relaxation cycles (CRCs) were recorded and analysed as previously described (Skomedal et al. 1997, J. Pharmacol Exp Ther 280: 721-729) (Sjaastad et al., 2003, supra) with respect to maximal developed force (Fmax), maximal development of force (dF/dt)max, time to peak force (TPF), time to relaxation to 20% level (TR20) and relaxation time (RT=TR20-TPF).
# [7] = system: post-infarction congestive heart failure (CHF) rats; assay: Six-week treatment of post-infarction CHF rats with a 5-HT4 antagonist, papillary muscle function afterwards; assay type: in vivo, rat; details: 50 mM SB207266 in s.c. miniosmotic pumps, six weeks
# Source text: An extensive myocardial infarction (MI) was induced in 320 g male Wistar rats under anaesthesia (68% N2O, 29% O2 and 2-3% Isofluran) by a proximal ligation of the left coronary artery (Sjaastad et al. 2003, supra). Three days later, rats were included in the study if the rats had both clinical signs of congestive heart failure (tachypnoe and forced ventilation) and a large myocardial infarction as verified by echocardiography. Rats included in the study were randomized blindly to placebo or treatment. […]
# After six weeks of treatment, the animals were again placed under Isofluran anaesthesia (68% N2O, 29% O2 and 2-3% Isofluran) with temperature control for echocardiographic and hemodynamic measurements, followed by euthanasia. Posterior left ventricular papillary muscles were then prepared, mounted in organ baths, equilibrated and field stimulated at 1 Hz (Sjaastad et al., 2003 supra) and the contraction-relaxation cycles (CRCs) were recorded and analysed as previously described with respect to maximal developed force (Fmax), maximal development of force (dF/dt)max, time to peak force (TPF), time to relaxation to 20% level (TR20) and relaxation time (RT=TR20-TPF). […]
structure (smiles),measurement,setting,value
"O=C(OCCN1CCCCC1)c1c[nH]c2ccccc12 [SB203186, 1-piperidinyl-ethyl-1H-indole-3-carboxylate]",pKb,"5-HT4 receptor [1]; 6 week post MI rats, 5 nM antagonist",9.1
same,block of the inotropic response to serotonin,5-HT4 receptor [1]; 6 week post MI rats,block the inotropic response to serotonin
"CN1[C@@H]2CC[C@H]1CC(OC(=O)C(CO)c1ccccc1)C2.CN1[C@@H]2CC[C@H]1CC(OC(=O)C(CO)c1ccccc1)C2.O=S(=O)(O)O (stereo partly shown) [Atropine, atropine sulfate]",inotropic response to serotonin restored by atropine,"[2]; 1 μmol/l atropine after serotonin and carbachol, p>0.06 vs serotonin alone",45.1±5.1%
same,"effect on serotonin-induced changes of TPF, TR2O and RT (contraction-relaxation cycle characteristics)","[2]; cumulative 10 μmol/l serotonin, 30 μmol/l carbachol, 1 μmol/l atropine",re-established the contraction-relaxation cycle characteristics
"COc1cc(COc2cc(N)c(Cl)cc2C(=O)CCC2CCN(CCNS(C)(=O)=O)CC2)cc(OC)c1 [RS39604, 1-[4-amino-5-chloro-2-(3,5-dimethoxybenzyloxy)phenyl]-3 [1-[2-[(methylsulf-onyl)amino]ethyl]-4-piperidinyl]-1-propanone hydrochloride]",Kb,"5-HT4 receptor [1]; 6 week post MI rats, 5 nM antagonist, read-out: pKb (converted)",0.631 nM
same,block of the inotropic response to serotonin,5-HT4 receptor [1]; 6 week post MI rats,block the inotropic response to serotonin
"O=C(c1ccc(F)cc1)C1CCN(CCn2c(=O)[nH]c3ccccc3c2=O)CC1 [Ketanserin, 3-[2-[4-(4-fluorobenzoyl)-1-piperidinyl]ethyl]-2,4(1H,3H)-quinazolinedione]",shift of the concentration-response curve for serotonin,[3],did not shift
"Cl.NCCc1c[nH]c2ccc(O)cc12 [serotonin, 5-hydroxytryptamine hydrochloride]",increase in contractile force,"[2]; 10 μmol/l serotonin, SEM, n=10",44.5±2.9%
same,positive inotropic response above control level,"[2]; 10 μmol/l serotonin, carbachol experiment, mean±SEM, n=5",33.7±6.6%
same,time from addition of serotonin to maximal inotropic response,"[2]; 10 μmol/l serotonin, prazosin, atropine and timolol present",1 to 2 min
same,positive inotropic response to serotonin,"[4]; 10 μmol/l serotonin, sham-operated animals, n=6",not seen in sham-operated animals
same,maximum inotropic response induced by serotonin,"5-HT4 receptor [1]; pooled average with and without GR113808, SEM, n=12",18.7±2.4%
same,inotropic response to serotonin,[5],elicited an inotropic response qualitatively similar to the response observed in CHF animals
same,inotropic response to serotonin,5-HT4 receptor [6],positive inotropic response comparable in magnitude and characteristics to the positive inotropic response to 100 μM isoproterenol
"C[N+](C)(C)CCOC(N)=O [Carbachol, carbamylcholine]",inotropic response to serotonin after carbachol (reversal),"[2]; 30 μmol/l carbachol added after 10 μmol/l serotonin, p<0.01",4.8±6.5%
"CCCCN1CCC(CNC(=O)c2c3n(c4ccccc24)CCCO3)CC1 [SB207266, N-[(1-butyl-4-piperidinyl)methyl]-3,4-dihydro-2H-[1,3]oxazino[3,2-a]indole-locarboxamide hydrochloride]",maximal inotropic response to β-adrenoceptor stimulation (myocardial function),[7]; vs placebo,trend towards normalisation
same,duration of the contraction-relaxation cycle,"[7]; preliminary data, not shown",trend towards normalisation
"CC(C)NC[C@H](O)c1ccc(O)c(O)c1 [isoprenaline, (−)-isoprenaline hemisulphate]",inotropic effect (increase in contractile force),"[2]; 10 μmol/l isoprenaline as printed, SEM, n=10",60.4±5.8% and 58.5±7%
same,"RT (TR20−TPF), relaxation time","[2]; n=10, listed as ISO",81.0 ± 1.8 ms
same,TPF (time to peak force),"[2]; n=10, listed as ISO",123.1 ± 1.6 ms
same,TR20 (time to relaxation to 20% level),"[2]; n=10, listed as ISO",204.1 ± 2.9 ms
same,"RT (TR20−TPF), relaxation time","[2]; n=10, listed as Iso",76.2 ± 1.8 % of control
same,TPF (time to peak force),"[2]; n=10, listed as Iso",83.2 ± 1.7 % of control
same,TR20 (time to relaxation to 20% level),"[2]; n=10, listed as Iso",80.3 ± 1.9 % of control
same,"RT (TR20−TPF), relaxation time",[4]; listed as ISO,75.0 ± 2.5 ms
same,TPF (time to peak force),[4]; listed as ISO,109.3 ± 2.7 ms
same,TR20 (time to relaxation to 20% level),[4]; listed as ISO,174.0 ± 4.9 ms
same,"RT (TR20−TPF), relaxation time",[4]; listed as Iso,69.4 ± 3.2 % of control
same,TPF (time to peak force),[4]; listed as Iso,87.4 ± 2.3 % of control
same,TR20 (time to relaxation to 20% level),[4]; listed as Iso,74.5 ± 1.7 % of control
same,positive inotropic response,"[4]; isoprenaline, sham-operated animals, mean±SEM, n=6",111.6±8.6%
